How the values were obtained:
[1] = Distribution in normal rat brain after CED, fluorescence microscopy; details: for local brain tissue damage: free SN-38 infused by CED into normal rat brain
Procedure: Serial coronal tissue sections (20 μm thickness) were prepared using Tissue-Tek Cryo3 (Sakura Finetek USA, Inc., Torrance, Calif.), and frozen sections were examined under a fluorescence microscope, BIOREVO BZ9000 (Keyence, Osaka, Japan), at an excitation wavelength of 377 nm and an emission wavelength 447 nm to evaluate the distribution of NK012 within the tissues. Image data were recorded using BZ-II Analyzer 1.10 software (Keyence).
Animals were euthanized immediately after infusion and serial sections were obtained using a cryostat (20 μm thickness; 1 mm interval).

[2] = test system: 9L orthotopic brain tumor model; test: Survival study, 9L orthotopic brain tumor model; type: in vivo, rat; details: rats with 9L tumor, 0.04 mg by single CED on day 5 after implantation
Procedure: Fischer 344 rats were used for the 9L model, and F344/NJc1-rnu/rnu (nude) rats were used for the U87MG model. […] Briefly, 9L and U87MG cells were harvested using trypsin-EDTA following washing once with complete medium, and resuspended in cold phosphate-buffered saline (PBS) for implantation. A cell suspension containing 1×10^4 (9L) or 2×10^5 (U87MG) cells per 10 μl of PBS was used for implantation into the striatum region of rat brains. Under deep isoflurane anesthesia, rats were placed in a small animal stereotactic frame (David Kopf Instruments, Tujunga, Calif.). […] Five microliters of cell suspension were injected at a depth of 4.5 mm from the brain surface. After a wait of 2 minutes, another 5 μl were injected at a depth of 4 mm. After a final wait of 2 minutes, the needle was removed, and the wound was closed with sutures.
Fourteen rats with implanted U87MG tumor cells were randomly divided into two groups on day 5 after tumor cell implantation and treated as follows: (1) CED of PBS (n=7) as a control, and (2) CED of NK012 (n=7). […] All other rats were monitored daily for survival. Survival was compared between the treatment groups using a log-rank test. Estimated survival was expressed as a Kaplan-Meier curve.

## 7-ethyl-10-hydroxy-camptothecine [SN-38]
[1]; CED into normal rat striatum, fluorescence of SN-38
  distribution after CED (description): quite restricted
[1]
  local brain tissue damage: severe local tissue damage
[1]; listed as free SN-38
  local brain tissue damage: increased local brain damage
[2]
  median survival: 28 days
  survival range after tumor cell implantation: 24 to 30 days
